Data taken from ChEMBL document CHEMBL1201862, “PubChem BioAssay data set” (2004).
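Five concentrations, 48 hours, 96-well plates. GI50 marks 50% less growth.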 The source made the active and inactive calls. Cut-off read from the data, not from the text of the source: active = GI50 up to about 1.1 µM and inactive = higher.

Columns and labels:
Assay in all cases: NCI-60 cell line screen, 48 h
SK-MEL-5 = test system: SK-MEL-5
786-0 = test system: 786-0
NCI-H226 = test system: NCI-H226
HCT-116 = test system: HCT-116
OVCAR-5 = test system: OVCAR-5
SN12C = test system: SN12C
K562 = test system: K562
DU-145 = test system: DU-145
HOP-92 = test system: HOP-92
SNB-75 = test system: SNB-75
CCRF-CEM = test system: CCRF-CEM
MDA-MB-231 = test system: MDA-MB-231
COLO 205 = test system: COLO 205
SF-268 = test system: SF-268
IGROV-1 = test system: IGROV-1
SK-MEL-28 = test system: SK-MEL-28
ACHN = test system: ACHN

Structure (SMILES) | GI50 (SK-MEL-5) | GI50 (786-0) | GI50 (NCI-H226) | GI50 (HCT-116) | GI50 (OVCAR-5) | GI50 (SN12C) | GI50 (K562) | GI50 (DU-145) | GI50 (HOP-92) | GI50 (SNB-75) | GI50 (CCRF-CEM) | GI50 (MDA-MB-231) | GI50 (COLO 205) | GI50 (SF-268) | GI50 (IGROV-1) | GI50 (SK-MEL-28) | GI50 (ACHN)
NNC(=O)CCC(NS(=O)(=O)c1ccc(Cl)cc1)C(=O)NN (stereo unspecified) | > 100 µM (inactive) | > 100 µM (inactive) | > 100 µM (inactive) | > 100 µM (inactive) | > 100 µM (inactive) | > 100 µM (inactive) | > 100 µM (inactive) | > 100 µM (inactive) | > 100 µM (inactive) | > 100 µM (inactive) | > 100 µM (inactive) | > 100 µM (inactive) | > 100 µM (inactive) | > 100 µM (inactive) | > 100 µM (inactive) | > 100 µM (inactive) | > 100 µM (inactive)
COc1nc2ncc([C@@H](O)[C@H](O)CO)nc2c(=O)n1C | > 100 µM (inactive) | > 100 µM (inactive) | > 100 µM (inactive) | > 100 µM (inactive) | > 100 µM (inactive) | > 100 µM (inactive) | > 100 µM (inactive) | > 100 µM (inactive) | > 100 µM (inactive) | > 100 µM (inactive) | > 100 µM (inactive) | > 100 µM (inactive) | > 100 µM (inactive) | > 100 µM (inactive) | > 100 µM (inactive) | > 100 µM (inactive) | > 100 µM (inactive)
O=C(OCCN=c1c2ccccc2ccc2ccccc12)c1ccc([N+](=O)[O-])cc1 | > 100 µM (inactive) | > 100 µM (inactive) | > 100 µM (inactive) | > 100 µM (inactive) | > 100 µM (inactive) | > 100 µM (inactive) | > 100 µM (inactive) | > 100 µM (inactive) | > 100 µM (inactive) | > 100 µM (inactive) | > 100 µM (inactive) | > 100 µM (inactive) | > 100 µM (inactive) | > 100 µM (inactive) | > 100 µM (inactive) | > 100 µM (inactive) | > 100 µM (inactive)
Cc1ccc2nc(N/N=C/c3sccc3C)cc(C)c2c1 | 28.8 µM (inactive) | 29.2 µM (inactive) | > 100 µM (inactive) | 42.6 µM (inactive) | > 100 µM (inactive) | > 100 µM (inactive) | > 100 µM (inactive) | > 100 µM (inactive) | 35 µM (inactive) | 38.7 µM (inactive) | > 100 µM (inactive) | 14.7 µM (inactive) | > 100 µM (inactive) | > 100 µM (inactive) | 37.2 µM (inactive) | > 100 µM (inactive) | > 100 µM (inactive)
Cn1cccc1-c1ccc(-c2ccc(CO)[se]2)[se]1 | 11.4 µM (inactive) | 14.2 µM (inactive) | 0.307 µM (active) | 6.34 µM (inactive) | 53.5 µM (inactive) | 68.9 µM (inactive) | 0.986 µM (active) | 17.5 µM (inactive) | > 100 µM (inactive) | 6.08 µM (inactive) | 11.5 µM (inactive) | 29.8 µM (inactive) | 11.4 µM (inactive) | 44.7 µM (inactive) | 0.582 µM (active) | 16.6 µM (inactive) | 38.9 µM (inactive)
COc1cc(/C=C2/CCCc3ccccc3C2=O)cc(OC)c1OC | 3.27 µM (inactive) | 18.3 µM (inactive) | 9.62 µM (inactive) | 6.65 µM (inactive) | 30.6 µM (inactive) | 15.1 µM (inactive) | 2.65 µM (inactive) | 11.9 µM (inactive) | 14.8 µM (inactive) | 12.4 µM (inactive) | 4.19 µM (inactive) | 15.6 µM (inactive) | 18.2 µM (inactive) | 14.7 µM (inactive) | 28.9 µM (inactive) | 22 µM (inactive) | 15.8 µM (inactive)
CCN(CC)CCC(=O)/C=C/c1ccccc1 | 18.4 µM (inactive) | 2.67 µM (inactive) | 19.4 µM (inactive) | 7.87 µM (inactive) | 17.5 µM (inactive) | 15.5 µM (inactive) | 3.05 µM (inactive) | 22.5 µM (inactive) | 10.4 µM (inactive) | 13.2 µM (inactive) | 3.57 µM (inactive) | 15.5 µM (inactive) | 7.11 µM (inactive) | 10.3 µM (inactive) | 17.5 µM (inactive) | 15.2 µM (inactive) | 12.6 µM (inactive)
CC(C)=CCOc1cc(NC(=S)c2ccsc2C)ccc1Cl | 36.1 µM (inactive) | 40.2 µM (inactive) | 13.5 µM (inactive) | 26.4 µM (inactive) | 86.7 µM (inactive) | 19 µM (inactive) | 7.48 µM (inactive) | 75.9 µM (inactive) | 5.87 µM (inactive) | 14.1 µM (inactive) | 39.6 µM (inactive) | 13.1 µM (inactive) | 37.3 µM (inactive) | 32.3 µM (inactive) | 4.43 µM (inactive) | > 100 µM (inactive) | 16.7 µM (inactive)
